ChEMBL document CHEMBL1146424, “New Steroidal Alkaloids from the Roots of Buxus sempervirens” (1997)
Activity calls are given as the source filed them. The rule behind the calls is not given here.

Tests used:
Lemna minor [1] = assay: Phytotoxicity against Lemna minor L. at 50 ppm; assay type: functional
Microsporum canis = assay: Antifungal activity against Microsporum canis at […] after 7 days by tube dilution method; assay type: functional, organism-based
Epidermophyton floccosum = assay: Antifungal activity against Epidermophyton floccosum at […] after 7 days by tube dilution method; assay type: functional, organism-based
Lemna minor [2] = assay: Phytotoxicity against Lemna minor L. at 500 ppm; assay type: functional
Proteus vulgaris = assay: Antibacterial activity against Proteus vulgaris at 200 ug/100 uL by agar well diffusion assay; assay type: functional, organism-based
Salmonella typhi = assay: Antibacterial activity against Salmonella typhi at 200 ug/100 uL by agar well diffusion assay; assay type: functional, organism-based; details: Salmonella enterica subsp. enterica serovar Typhi
Stachybotrys chartarum = assay: Antifungal activity against Stachybotrys atra at […] after 7 days by tube dilution method; assay type: functional, organism-based
Shigella flexneri = assay: Antibacterial activity against Shigella flexnerii at 200 ug/100 uL by agar well diffusion assay; assay type: functional, organism-based
Lemna minor [3] = assay: Phytotoxicity against Lemna minor L. at 5 ppm; assay type: functional
Escherichia coli = assay: Antibacterial activity against Escherichia coli at 200 ug/100 uL by agar well diffusion assay; assay type: functional, organism-based
Proteus mirabilis = assay: Antibacterial activity against Proteus mirabilis at 200 ug/100 uL by agar well diffusion assay; assay type: functional, organism-based

Question: C[C@@H]([C@H]1[C@H](O)C[C@@]2(C)[C@@H]3CC[C@@H]4C(=CC[C@H](NC(=O)c5ccccc5)C4(C)C)CC3=CC[C@]12C)N(C)C [16ALPHA-HYDROXY-NA-BENZOYLBUXADINE] was tested. Which Activity (Lemna minor [1]) did it give?
Answer: Its Activity is 28.6%.

Question: What about the Activity (Microsporum canis) of the same compound?
Answer: Its Activity is “Active”.

Question: What about the Activity (Epidermophyton floccosum) of the same compound?
Answer: Its Activity is “Active”.

Question: What about the Activity (Lemna minor [2]) of the same compound?
Answer: Its Activity is 46%.

Question: What about the Activity (Proteus vulgaris) of the same compound?
Answer: Its Activity is “Active”.

Question: What about the Activity (Salmonella typhi) of the same compound?
Answer: The Activity was “Active”.

Question: And the Activity (Stachybotrys chartarum)?
Answer: The Activity was “Active”.

Question: What about the Activity (Shigella flexneri) of the same compound?
Answer: Its Activity is “Active”.

Question: What about the Activity (Lemna minor [3]) of the same compound?
Answer: Its Activity is 20.3%.

Question: And the Activity (Escherichia coli)?
Answer: The Activity was “Active”.

Question: And the Activity (Proteus mirabilis)?
Answer: The Activity was “Active”.
